The results in this text go back to article PMC5909342, “Increasing the bioactive space of peptide macrocycles by thioamide substitution” (Chemical Science, 2018).

Each structure is given as a SMILES string. Read-outs that look alike come from different tables or passages of the source.

Data set [1] concerns αvβ3, αvβ5 and α5β1 expressing U-87 MG glioblastoma cells. As to the kind of experiment: Competitive cell-adhesion inhibition assay to vitronectin, U-87 MG. The class given is cell-based, human. Conditions: n = 5 ± SEM, read-out: In cellulo IC50 U-87 MG. Here is the method: To validate our in vitro data and determine the efficacy of the peptides against the pro-angiogenic integrins in a complex cellular milieu, we subjected the peptides to a competitive cell-adhesion assay (Table 1) utilizing MDA-MB-231 human breast cancer cells expressing αvβ5 integrins, and U-87 MG human glioblastoma cells expressing αvβ3, αvβ5 and α5β1 integrins.[27] […]
(§1) Cell adhesion inhibition assay […]
(§2) incubated with 0.5% crystal violet for 15 min. Cells were then washed thoroughly with PBS buffer to remove excess of crystal violet. Finally dye was eluted out and dissolved using DMSO and quantification was done at 570 nm. […]
(§3) was dispensed and 5% FBS containing media was added. […]

For a further data set, the target named is T1, α5β1 integrin (Homo sapiens, UniProt P05556+P08648).
T1 construct: purchased Millipore
As to the kind of experiment: Competitive solid-phase integrin binding assay (ELISA), fibronectin-α5β1. The settings on record: purified integrin, n = 5 ± SEM, read-out: In vitro IC50 α5β1. As for the experimental part: (§4) The initial structure was obtained by following a simulated annealing protocol. […] For the structure of 7-11 (including 9a-9d) explicit solvent box of H2O was used with periodic boundary conditions. A 2 ns restrained molecular dynamics run was then performed. The average conformation over the dynamics run was considered to be the final structure. Competitive solid-phase integrin binding assay The activity of peptide as integrin antagonist was assessed using solid phase integrin binding assay. Following buffers were prepared freshly. […] 96-well plate reader at 492 nm. […] Binding was visualized using TMB substrate. […] S7
Background: ELISA stands for enzyme-linked immunosorbent assay.

A further data set has as its target T2, αvβ5 integrin (Homo sapiens, UniProt P06756+P18084).
T2 construct: purchased Millipore
The data set can be described thus: Competitive solid-phase integrin binding assay (ELISA), vitronectin-αvβ5. Conditions: purified integrin, n = 5 ± SEM, read-out: In vitro IC50 αvβ5. As for the experimental part:
as §4, with “Post-blocking and washing peptides were mixed with biotinylated vitronectin and this mixure” for “Binding”, “then incubated with coated plates for 2h at room temperature.” for “visualized using TMB substrate.”, “After washing S6” for “S7”

In another data set the target is T3, αIIbβ3 integrin (Homo sapiens, UniProt P05106+P08514).
T3 construct: purchased Millipore
The data set can be described thus: Competitive solid-phase integrin binding assay (ELISA), fibrinogen-αIIbβ3. Conditions: purified integrin, n = 5 ± SEM, read-out: In vitro IC50 αIIbβ3. Here is the method:
The inhibitory potency of the peptides to block the association between the extracellular matrix and the integrins overexpressed on cell-surfaces was determined using an in vitro competitive solid phase binding assay.[25] We assessed the affinity of these peptides against the pro-angiogenic αvβ3, αvβ5 and α5β1 integrins, and their selectivity against their αIIbβ3 integrin, which plays an important role in platelet aggregation (Table 1).[26]
integrin was incubated for 1h at room temperature. After washing 1:250 diluted CD41b
antibody was incubated for 1h at room temperature. Anti-mouse IgG-peroxidase antibody
was used as secondary antibody. Binding was visualized using TMB substrate. […]

The test system of data set [2] is αvβ5 expressing MDA-MB-231 breast cancer cells. The data set can be described thus: Competitive cell-adhesion inhibition assay to vitronectin, MDA-MB-231. The class given is cell-based, human. Conditions: n = 5 ± SEM, read-out: In cellulo IC50 MDA-MB-231. Here is the method:
To validate our in vitro data and determine the efficacy of the peptides against the pro-angiogenic integrins in a complex cellular milieu, we subjected the peptides to a competitive cell-adhesion assay (Table 1) utilizing MDA-MB-231 human breast cancer cells expressing αvβ5 integrins, and U-87 MG human glioblastoma cells expressing αvβ3, αvβ5 and α5β1 integrins.[27] […] On the other hand, we observed a remarkable correlation between the in vitro affinity of the thioamidated peptides against the purified integrins and their efficacy in cellulo (αvβ5 with MDA-MB-231, and αvβ3 and αvβ5 with U-87 MG). […]
as §1, §2, §3

The next data set has as its target T4, αvβ3 integrin (Homo sapiens, UniProt P05106+P06756).
T4 construct: purchased Millipore
The data set can be described thus: Competitive solid-phase integrin binding assay (ELISA), vitronectin-αvβ3. Here is the method: as §4, with “Post-blocking and washing peptides were mixed with biotinylated vitronectin and this mixure” for “Binding”, “then incubated with coated plates for 2h at room temperature.” for “visualized using TMB substrate.”, “After washing S6” for “S7”

Data set [3] in a line: Ex vivo serum stability assay. The settings on record: human serum ex vivo.
[4] abbreviates: competitive ELISA, purified integrin, n = 5 ± SEM, read-out: In vitro IC50 αvβ3.
[5] abbreviates: from experimental IC50, read-out: pIC50 against αvβ3, Table S22 (converted).

`CC(C)[C@@H]1NC(=O)[C@H](Cc2ccccc2)NC(=S)[C@H](CC(=O)O)NC(=O)CNC(=O)[C@@H](CCCNC(=N)N)NC1=O` [Compound 9c]: the IC50 in data set [1] was more than 100000 nM; at α5β1 integrin it was 461 ± 246 nM; on αvβ5 integrin it was more than 10000 nM; on αIIbβ3 integrin it was more than 100000 nM; in data set [2], more than 100000 nM; at αvβ3 integrin (setting [4]) it was more than 100000 nM.
For the molecule `CC(C)[C@H]1NC(=O)[C@H](Cc2ccccc2)NC(=O)[C@H](CC(=O)O)NC(=S)CNC(=O)[C@H](CCCNC(=N)N)NC1=O` [Compound 9d], the IC50 in data set [1] is more than 100000 nM; on α5β1 integrin, 104 ± 95 nM; at αvβ5 integrin, more than 10000 nM; at αIIbβ3 integrin, more than 100000 nM; in data set [2], more than 100000 nM; on αvβ3 integrin (setting [4]), 584 ± 504 nM.
Turning to `CC(C)[C@@H]1NC(=O)[C@@H](Cc2ccccc2)NC(=O)[C@H](CC(=O)O)NC(=S)CNC(=O)[C@H](CCCNC(=N)N)NC1=O` [Compound 10], the IC50 in data set [1] was more than 100000 nM; at α5β1 integrin it was more than 100000 nM; at αvβ5 integrin it was more than 100000 nM; on αIIbβ3 integrin, more than 100000 nM; in data set [2] it was more than 100000 nM; at αvβ3 integrin (setting [4]), 252 ± 200 nM.
Turning to `CC(C)[C@@H]1NC(=O)[C@@H](Cc2ccccc2)NC(=O)[C@H](CC(=O)O)NC(=O)CNC(=S)[C@H](CCCNC(=N)N)NC1=O` [Compound 9], the IC50 in data set [1] was more than 100000 nM; at α5β1 integrin, 53 ± 42 nM; at αvβ5 integrin it was more than 10000 nM; on αIIbβ3 integrin it was more than 10000 nM; in data set [2] it was more than 100000 nM; on αvβ3 integrin (setting [4]), more than 100000 nM. In addition, at αvβ3 integrin (setting [5]), the IC50 is more than 100000 nM.
With `CC(C)[C@@H]1NC(=O)[C@@H](Cc2ccccc2)NC(=S)[C@H](CC(=O)O)NC(=O)CNC(=O)[C@H](CCCNC(=N)N)NC1=O` [Compound 11], the “Fraction of peptide intact at 72 h” value in data set [3] is 1/4. The IC50 was 96 ± 77 nM in data set [1]; 62 ± 45 nM at α5β1 integrin; 1.3 ± 1 nM on αvβ5 integrin; more than 100000 nM on αIIbβ3 integrin; 4.2 ± 4 nM in data set [2]; 72 ± 63 nM at αvβ3 integrin (setting [4]).
With `CC(C)[C@@H]1NC(=S)[C@@H](Cc2ccccc2)NC(=O)[C@H](CC(=O)O)NC(=O)CNC(=O)[C@H](CCCNC(=N)N)NC1=O` [Compound 7], the IC50 in data set [1] is 326 ± 97 nM; on α5β1 integrin, 1.3 ± 0.6 nM; on αvβ5 integrin, 0.7 ± 0.2 nM; on αIIbβ3 integrin, more than 10000 nM; in data set [2], 4 ± 2 nM; at αvβ3 integrin (setting [4]), 372 ± 52 nM.
Consider `CC(C)[C@@H]1NC(=S)[C@H](Cc2ccccc2)NC(=O)[C@H](CC(=O)O)NC(=O)CNC(=O)[C@H](CCCNC(=N)N)NC1=O` [Compound 9b], for which the “Fraction of peptide intact at 72 h” value in data set [3] is 1/4. The IC50 in data set [1] was 1.6 ± 0.6 nM; at α5β1 integrin, 2 ± 0.4 nM; on αvβ5 integrin, 1.6 ± 0.3 nM; on αIIbβ3 integrin, more than 100000 nM; in data set [2], 1 ± 0.1 nM; on αvβ3 integrin (setting [4]) it was 0.2 ± 0.1 nM. The IC50 at αvβ3 integrin (setting [5]) was 0.2 nM. For the same molecule, on αvβ3 integrin (9b versus 7 (differ only in chirality of Phe)), the “Fold difference in αvβ3 affinity” value is listed as > 10^3 fold. For the same molecule, the “Fold enhancement of affinity and efficacy in comparison to 9” value at αvβ3 integrin (9b versus 9, pro-angiogenic integrins) is listed as ~10^5 fold.
Regarding `CC(C)[C@@H]1NC(=O)[C@H](Cc2ccccc2)NC(=O)[C@H](CC(=O)O)NC(=O)CNC(=O)[C@H](CCCNC(=N)N)NC1=O` [Compound 12, cyclo(RGDFV)], the IC50 in data set [1] and in data set [2] was more than 100000 nM in each case.
For the molecule `CC(C)[C@@H]1NC(=O)[C@H](Cc2ccccc2)NC(=O)[C@@H](CC(=O)O)NC(=O)CNC(=O)[C@H](CCCNC(=N)N)NC1=S` [Compound 9a], the IC50 in data set [1] was 40 ± 28 nM; in data set [2], 11 ± 9 nM.
